Test results: paper PMC8791477, “Evaluation of SARS-CoV-2 entry, inflammation and new therapeutics in human lung tissue cells” (PLoS Pathogens, 2022)
Where a name gives a salt, the structure may show the parent alone. Read-outs that look alike come from different tables or passages of the source.

Columns and labels:
[1] = tested on: VSV*ΔG(Luc)-S virus (SARS-CoV-2 spike, D614G); details: for EC50: read-out: EC50 HLT
[2] = tested on: VSV*ΔG(Luc)-S virus (SARS-CoV-2 spike, D614G); details: for EC50: read-out: EC50 Vero E6

Compound	EC50 [1] [µM]	EC50 Vero E6 [2]	EC50 HLT [1]	other results
CC1=C(CC(=O)O)c2cc(F)ccc2/C1=C\c1ccc([S+](C)[O-])cc1 (stereo not shown) [Sulindac]	> 100	No effect		
O=C1Nc2ccccc2/C1=C1/Nc2ccccc2C1=O [Indirubin]		No effect	No effect	
CCCCCCCCCCCC(=O)O [Lauric acid]		No effect	No effect	
CC(C)C(=O)OCC(=O)[C@@]12O[C@H](C3CCCCC3)O[C@@H]1C[C@H]1[C@@H]3CCC4=CC(=O)C=C[C@]4(C)[C@H]3[C@@H](O)C[C@@]12C [Ciclesonide]	16.4			EC50 [2]: 20.5 µM
COc1ccc2cc1Oc1ccc(cc1)C[C@H]1c3c(cc4c(c3Oc3cc5c(cc3OC)CCN(C)[C@@H]5C2)OCO4)CCN1C [Cepharanthine]				SI HLT (CC50/EC50) [1]: 2.64; SI VeroE6 (CC50/EC50) [2]: 48.47
N[C@@H](CC(=O)N1CCn2c(nnc2C(F)(F)F)C1)Cc1cc(F)c(F)cc1F [Sitagliptin]		No effect	No effect	
CC1(C)[C@@H](O[C@H]2O[C@H](C(=O)O)[C@@H](O)[C@H](O)[C@H]2O[C@@H]2O[C@H](C(=O)O)[C@@H](O)[C@H](O)[C@H]2O)CC[C@]2(C)[C@H]3C(=O)C=C4[C@@H]5C[C@@](C)(C(=O)O)CC[C@]5(C)CC[C@@]4(C)[C@]3(C)CC[C@@H]12 [Glycyrrhizin]		No effect	No effect	
O=c1c(O)c(-c2cc(O)c(O)c(O)c2)oc2cc(O)cc(O)c12 [Myricetin]		No effect	No effect	
Cc1cccn2c(=O)c(-c3nnn[nH]3)cnc12 [Pemirolast, Pemirolast potassium]		No effect	No effect	
CCCCCCCCCCCC(=O)OCC(O)CO (stereo not shown) [Monolaurin]		No effect	No effect	
C[C@]12C=CC(=O)C=C1CC[C@@H]1[C@@H]2C(=O)C[C@@]2(C)[C@H]1CC[C@]2(O)C(=O)CO [Prednisone]		No effect	Some effect	viral entry in HLT cells (in words) [1]: partial reduction of viral entry; viral entry in VeroE6 cells (in words) [2]: without any apparent impact
Cc1ccc(-c2cc(C(F)(F)F)nn2-c2ccc(S(N)(=O)=O)cc2)cc1 [Celecoxib]	55.7			EC50 [2]: 13 µM
Ergoloid mesylates	9.17			SI HLT (CC50/EC50) [1]: 11.38; viral entry inhibition in HLT cells [1]: ~ 90%; SI VeroE6 (CC50/EC50) [2]: 3.9; EC50 [2]: 4.78 µM
CC(C)[C@H](N)C(=O)OCCOCn1cnc2c(=O)[nH]c(N)nc21 [Valaciclovir]	> 100			viral entry in HLT cells (in words) [1]: some inhibitory potential
recombinant protein AXL				viral entry in HLT cells with entry-factor blockers (in words) [1]: inhibited SARS-CoV-2 entry
C[C@]1(Cn2ccnn2)[C@H](C(=O)O)N2C(=O)C[C@H]2S1(=O)=O [Tazobactam]		No effect	No effect	
N#C[C@@H]1CCCN1C(=O)CNC12CC3CC(CC(O)(C3)C1)C2 [Vidagliptin, Vildagliptin]		No effect	No effect	
Ivermectin	13			SI HLT (CC50/EC50) [1]: 7.75; viral entry in HLT cells (in words) [1]: effective antiviral; SI VeroE6 (CC50/EC50) [2]: 1.4; EC50 [2]: 13.9 µM
CN(C)C(=N)N=C(N)N [Metformin]		No effect	No effect	

Compound	EC50 [1] [µM]	EC50 Vero E6 [2]	EC50 HLT [1]	other results
CN(C)C(=O)COC(=O)Cc1ccc(OC(=O)c2ccc(NC(=N)N)cc2)cc1 [Camostat, Camostat mesylate]				viral entry in HLT cells with entry-factor blockers (in words) [1]: significantly inhibited viral entry
CCCCCCCCCC(=O)OCC(O)CO (stereo not shown) [Monocaprin]		No effect	No effect	
O=C1C[C@@H](c2ccc(O)c(O)c2)Oc2cc(O)cc(O)c21 [Eriodictyol]	90			viral entry in HLT cells (in words) [1]: certain activity
Cc1ccnc(NS(=O)(=O)c2ccc(N)cc2)n1 [Sulfamerazine]		No effect	No effect	
NC(=O)[C@@H]1CCCN1C(=O)[C@H](Cc1c[nH]cn1)NC(=O)[C@@H]1CCC(=O)N1 [Protilerin]		No effect	No effect	
CC(C)Cc1ccc(C(C)C(=O)O)cc1 (stereo not shown) [Ibuprofen]		No effect	No effect	
Cc1cc(NS(=O)(=O)c2ccc(N)cc2)no1 [Sulfamethoxazole]		No effect	No effect	
O=C1CN(/N=C/c2ccc([N+](=O)[O-])o2)C(=O)N1 [Nitrofurantoin]		No effect	No effect	
Cc1cc(O)c2c(=O)c3c(O)cc(O)c4c5c(O)cc(O)c6c(=O)c7c(O)cc(C)c8c1c2c(c34)c(c78)c65 [Hypericin]	0.31			EC50 [2]: 1.24 µM
CCCCCCCCCCCCOS(=O)(=O)[O-].[Na+] [SLS, Sodium lauryl sulfate]	> 100			EC50 [2]: ~26.4 µM
Nc1ncnc2c1ncn2[C@@H]1O[C@H](CO)[C@@H](O)[C@@H]1O [Vidarabine]	51.6			EC50 [2]: > 100 µM
C[C@]12CCC(=O)C=C1CC[C@@H]1[C@@H]2[C@@H](O)C[C@@]2(C)[C@H]1CC[C@]2(O)C(=O)CO [Cortisol]		No effect	No effect	
C[C@@H]1C[C@H]2[C@@H]3CCC4=CC(=O)C=C[C@]4(C)[C@@]3(F)[C@@H](O)C[C@]2(C)[C@@]1(O)C(=O)CO [Dexamethasone]		No effect	No effect	viral entry in VeroE6 cells (in words) [2]: without any apparent impact
Oc1ccc(CC2NCCc3cc(O)c(O)cc32)cc1 (stereo not shown) [Higenamine, Higenamine hydrochloride]		No effect	No effect	
C[C@H](O)[C@H](O)[C@H]1CNc2nc(N)[nH]c(=O)c2N1 [Tetrahydrobiopterin, Tetrahydrobiopterin dihydrochloride]		No effect	No effect	
CC1(C)Cc2c(-c3ccccc3)c(-c3ccc(Cl)cc3)c(CC(=O)O)n2C1 [Licofelone]	32.2			
O=c1c(O)c(-c2ccc(O)c(O)c2)oc2cc(O)cc(O)c12 [Quercetin]				viral entry in VeroE6 cells (in words) [2]: some viral entry suppression; EC50 [2]: > 100 µM
O=c1cc(-c2ccc(O)c(O)c2)oc2cc(O)cc(O)c12 [Luteolin]	~82.4			EC50 [2]: ~70.7 µM
[H]/N=C(/N)N/C(=N/[H])NCCc1ccccc1 [Phenformin]	38.2			viral entry in HLT cells (in words) [1]: significantly reduced viral entry
